Measured values published in patent US20130064794A1, “Substituted Carbonyloxymethylphosphoramidate Compounds and Pharmaceutical Compositions for the Treatment of Viral Infections” (IDENIX PHARMACEUTICALS, INC., priority 2011, published 2013).
Read-outs that look alike come from different tables or passages of the source.

Columns and labels:
Type in all cases: cell-based
[1] = Cytotoxicity evaluation, CellTiter-Blue Cell Viability Assay; settings: human, Zluc cells (Huh-7-derived cell line), read-out: HCV Replicon CC50
Method: (§1) For cytotoxicity evaluation, Zluc cells were treated with compound as described above, and cell viability was monitored using the CellTiter-Blue Cell Viability Assay (Promega) by adding 20 μL of the assay solution to each well. The plates were then incubated at 37° C./5% CO2 for at least 3 hours.

HCV genotype 1b replicon = assay: microbe, parasite or virus in culture; settings: read-out: HCV Replicon EC50
Method: Huh-7-derived cell line (Zluc) that harbors an HCV genotype 1b replicon and a luciferase reporter gene was grown in Dulbecco's Modified Eagle Medium (DMEM) supplemented with 10% fetal bovine serum, 2 mM GlutaMAX, 1% MEM nonessential amino acids, 100 IU/mL penicillin, 100 μg/mL streptomycin, and 0.5 mg/mL Geneticin® (G418). For dose response testing the cells were seeded in 96-well plates at 7.5×10^3 cells per well in a volume of 50 μL, and incubated at 37° C./5% CO2. Drug solutions were made up freshly in Huh-7 media as 2× stocks. Ten additional 5-fold dilutions were prepared from these stocks in DMEM without G418. At least three hours after Zluc cells were seeded, drug treatment was initiated by adding 50 μL of drug dilutions to the plates in duplicate. […] Cells were then incubated at 37° C./5% CO2. Alternatively compounds were tested at two concentrations (10 nM and 100 nM). […] For this, media was removed from the plates via gentle tapping. Fifty microliters of ONE-glo luciferase assay reagent was added to each well. […] The EC50 values were calculated from dose response curves from the resulting best-fit equations determined by Microsoft Excel and XLfit 4.1 software.

[2] = system: Zluc cells (Huh-7-derived cell line); assay: Cytotoxicity evaluation, CellTiter-Blue Cell Viability Assay; settings: read-out: HCV Replicon CC50
Method: as §1

[3] = Zluc cells, HCV genotype 1b replicon, luciferase, 72 hours of incubation

Row | SMILES | CC50 [1] [µM] | EC50 (HCV genotype 1b replicon; Hepatitis C virus, 72 h) [µM] | CC50 [2] [µM] | EC50 (HCV genotype 1b replicon; [3]) [µM]
1 | CCNC(=O)OCOP(=O)(N[C@H](C(=O)OCC)C(C)(C)C)OC[C@H]1O[C@@H](n2cnc3c(OCC)nc(N)nc32)[C@](C)(F)[C@@H]1O (single isomer, unassigned) [Compound 22] | > 50 | 1 to 10 | – | –
2 | CCOc1nc(N)nc2c1ncn2[C@@H]1O[C@H](COP(=O)(N[C@@H](C)C(=O)OC(C)C)OC(C)OC(=O)SCC)[C@@H](O)[C@@]1(C)F (stereo partly drawn) [Compound 24] | > 50 | < 0.1 | – | –
3 | CCOC(=O)OC(C)OP(=O)(N[C@@H](C)C(=O)OC(C)C)OC[C@H]1O[C@@H](n2cnc3c(OC)nc(N)nc32)[C@](C)(F)[C@@H]1O (single isomer, unassigned) [Compound 17] | – | – | > 50 | < 0.1
4 | COc1nc(N)nc2c1ncn2[C@@H]1O[C@H](COP(=O)(NCc2ccccc2)OC(OC(=O)OC(C)C)C(C)C)[C@@H](O)[C@@]1(C)O (stereo partly drawn) [Compound 6] | < 50 | < 0.1 | – | –
5 | CCNC(=O)OCOP(=O)(N[C@H](C(=O)OCC)C(C)(C)C)OC[C@H]1O[C@@H](n2cnc3c(OCC)nc(N)nc32)[C@](C)(F)[C@@H]1O (single isomer, unassigned) [Compound 21] | > 50 | 1 to 10 | – | –
6 | CCOC(=O)OC(C)OP(=O)(N[C@@H](C)C(=O)OC(C)C)OC[C@H]1O[C@@H](n2cnc3c(OC)nc(N)nc32)[C@](C)(F)[C@@H]1O (single isomer, unassigned) [Compound 16] | – | – | > 50 | < 0.1
7 | CC(C)(C)C(=O)OCOP(=O)(NCc1ccccc1)OC[C@H]1O[C@@H](n2cnc3c(=O)[nH]c(N)nc32)[C@](C)(O)[C@@H]1O (stereo partly drawn) [Compound 2] | > 50 | < 0.1 | – | –
8 | C[C@@]1(O)[C@H](O)[C@@H](COP(=O)(O)NCc2ccccc2)O[C@H]1n1cnc2c(=O)[nH]c(N)nc21 [Compound 1] | > 50 | 0.1 to 1 | – | –
9 | COc1nc(N)nc2c1ncn2[C@@H]1O[C@H](COP(=O)(N[C@@H](CC(C)C)C(=O)OC(C)C)OCOC(=O)OC(C)C)[C@@H](O)[C@@]1(C)O (stereo partly drawn) [Compound 7] | > 50 | < 0.1 | – | –
